Earlier results, collected in patent publication US7875639B2, “Compounds as cannabinoid receptor ligands and uses thereof” (priority 2006, dated 2011).

Columns and labels:
[1] = at fully efficacious doses
rodent models = rodent models of neuropathic, incisional, and both chronic and acute inflammatory pain
[2] = tested on: CB1I receptor knockout mice; settings: CB1 receptor knockout mice
[3] = tested on: apolipoprotein F knockout mice; settings: low doses
animal models = animal models of acute thermal pain, persistent pain, inflammatory pain and neuropathic pain
mice = settings: model for post-menopausal osteoporosis
rat = rat formalin model of persistent pain
microglia = settings: in vitro

## COc1ccc2c(c1)c(CCN1CCOCC1)c(C)n2C(=O)c1cccc(Cl)c1Cl [GW405833]
[1]
  typical CB1 receptor-mediated CNS side effects: devoid of typical CB1 receptor-medicated CNS side effects
Rodent models
  efficacy in pain models: is efficacious

## (−)-Δ^9-Tetrahydrocannabinol [Δ^9-THC]
[2]
  analgesic efficacy: retains some analgesic efficacy
[3]
  progression of atherosclerotic lesions: slowed the progression of atherosclerotic lesions

## CN1CCCCC1Cn1cc(C(=O)c2cc([N+](=O)[O-])ccc2I)c2ccccc21 (stereo not shown) [AM-1241]
[1]
  typical CB1 receptor-mediated CNS side effects: devoid of typical CB1 receptor-medicated CNS side effects
Animal models
  analgesic efficacy: exhibits robust analgesic efficacy

## SR144528
mice
  ovariectomy-induced bone loss: reverse ovariectomy-induced bone loss
osteoclast
  osteoclast activity: inhibit osteoclast activity

## CCCCCCC(C)(C)c1cc(OC)c([C@@H]2C=C(CO)[C@@H]3C[C@H]2C3(C)C)c(OC)c1 [HU-308]
rat
  antinociceptive response: elicits an antinociceptive response

## CCCC(C)(C)c1ccc2c(c1)OC(C)(C)[C@@H]1CC=C(C)C[C@@H]21 [JWH-133]
microglia
  β-amyloid-induced microglial activation and neurotoxicity: abrogated β-amyloid-induced microglial activation and neurotoxicity
